Tested on: normal human melanocytes
Experiment: Depigmenting activity (reduction of melanin production) in normal human melanocytes in vitro
Assay type: cell-based
Conditions: run 1, 72 hours incubation, optical density (melanin)
Protocol: The measurement of the depigmenting activity (reduction of melanin production) of compounds of formula (I) was performed by assaying normal human melanocytes in vitro as follows.
First, normal human melanocytes are cultured and distributed in wells. After 24 hours, the culture medium was replaced with a medium containing the compounds of formula (I) to be evaluated. The cells were incubated for 72 hours before measuring the final optical density, which measures the amount of melanin produced by the melanocytes. The compounds are tested at 100 μM after calibration.
Various test runs were performed and the results are collated in the following table.

Row | SMILES | % Depigmentation at 100 μM (run 1)
1 | O=C(O)c1ccc(NC(=O)C(O)C2O[C@H](CO)[C@@H](O)[C@H](O)[C@H]2O)cc1O (stereo partly shown) [Compound 1] | 13%
2 | NC(=O)[C@@H](CO)NC(=O)C(O)[C@@H]1OC[C@@H](O)[C@H](O)C1O (single isomer, unassigned) [Compound 11-dia1] | 28%
3 | NC(=O)[C@@H](CO)NC(=O)C(O)[C@@H]1O[C@H](CO)[C@@H](O)[C@H](O)C1O (stereo partly shown) [Compound 5] | 31%
4 | NC(=O)CNC(=O)C(O)[C@@H]1OC[C@@H](O)[C@H](O)C1O (stereo partly shown) [Compound 10] | 20%
5 | NC(=O)CNC(=O)C(O)[C@@H]1O[C@H](CO)[C@@H](O)[C@H](O)C1O (stereo partly shown) [Compound 4] | 19%
6 | NC(=O)C1CCCN1C(=O)C(O)[C@@H]1O[C@H](CO)[C@@H](O)C(O)C1O (stereo partly shown) [Compound 6] | 29%
7 | NC(=O)CCNC(=O)C(O)[C@@H]1O[C@H](CO)[C@@H](O)[C@H](O)C1O (stereo partly shown) [Compound 7] | 34%

Same assay, conditions: run 2, 72 hours incubation, optical density (melanin)

Row | SMILES | % depigmentation at 100 μM (run 2)
8 | NC(=O)[C@@H](CO)NC(=O)C(O)[C@@H]1OC[C@@H](O)[C@H](O)C1O (single isomer, unassigned) [Compound 11-dia2] | 32%
9 | CCOC(=O)CNC(=O)C(OC(C)=O)C1OC[C@@H](OC(C)=O)[C@H](OC(C)=O)[C@H]1O (stereo partly shown) [Compound 19] | 15%
10 | CCOC(=O)[C@@H](CO)NC(=O)C(O)[C@@H]1OC[C@@H](O)[C@H](O)C1O (stereo partly shown) [Compound 12] | 20%
11 | CCOC(=O)[C@@H](CO)NC(=O)C(OC(C)=O)C1OC[C@@H](OC(C)=O)[C@H](OC(C)=O)[C@H]1O (single isomer, unassigned) [Compound 20-dia1] | 23%

Tested on: normal human melanocytes
Experiment: as above
Assay type: cell-based
Conditions: 200 μM (max dose tested)

Row | SMILES | % depigmentation at the max dose tested 200 μM (run 2)
12 | CCOC(=O)CNC(=O)C(OC(C)=O)C1OC[C@@H](OC(C)=O)[C@H](OC(C)=O)[C@H]1O (stereo partly shown) [Compound 19] | 43%
13 | CCOC(=O)[C@@H](CO)NC(=O)C(O)[C@@H]1OC[C@@H](O)[C@H](O)C1O (stereo partly shown) [Compound 12] | 28%

— patent publication US11364189B2, “Method for the treatment of keratin materials using amide C-glycoside derivatives, and cosmetic composition containing same” (L'OREAL, priority 2016, dated 2022)
